Our source for the IC50 values is patent US8242145B2, “Cyclic diaryl ether compounds as antagonists of prostaglandin D2 receptors” (Panmira Pharmaceuticals, LLC, priority 2008, dated 2012).

The structures appear in SMILES notation. pIC50: −log10 of the molar value.

For one test, the target named is T1, human DP2 receptor (Homo sapiens, UniProt Q9Y5Y4).
T1 construct: expressed in transfected cells
T1 sequence (Q9Y5Y4 1-395): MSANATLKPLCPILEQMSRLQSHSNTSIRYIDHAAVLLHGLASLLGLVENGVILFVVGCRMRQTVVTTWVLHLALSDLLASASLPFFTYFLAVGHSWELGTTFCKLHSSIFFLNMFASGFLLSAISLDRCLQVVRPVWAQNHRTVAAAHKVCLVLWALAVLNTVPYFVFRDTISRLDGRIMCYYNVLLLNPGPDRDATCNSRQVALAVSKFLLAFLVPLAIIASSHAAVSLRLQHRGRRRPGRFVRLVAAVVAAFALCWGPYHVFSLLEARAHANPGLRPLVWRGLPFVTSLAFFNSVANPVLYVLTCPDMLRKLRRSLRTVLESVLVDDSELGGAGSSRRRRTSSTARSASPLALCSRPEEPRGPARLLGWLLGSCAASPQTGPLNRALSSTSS
The test can be described thus: DP2/CRTH2 radioligand binding assay using [3H]PGD2. The settings on record: hDP2 (CRTH2) binding assay. In outline: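 HEK293 membranes with stable recombinant human DP2, incubated with 1 nM [3H]PGD2 and compound 60 min at room temperature in pH 7.4 HEPES/MnCl2/EDTA buffer, with or without 0.2% human serum albumin.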

Test [1] concerns the target T2, recombinant human CRTH2 receptor (Homo sapiens, UniProt Q9Y5Y4).
T2 construct: expressed in transfected cells
T2 sequence (Q9Y5Y4 1-395): T1 sequence (Q9Y5Y4 1-395)
The test can be described thus: GTPγS binding assay. It is filed as biochemical. Conditions: +HSA; read-out: hDP2 GTPγS μM (+HSA). In short, it runs like this:
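Membranes from CHO cells stably expressing recombinant receptor (~12.5 μg/well), incubated 60 min at 30° C with 0.05 nM [^35S]-GTPγS, 80 nM PGD2, 5 μM GDP in pH 7.4 Hepes buffer with 0.2% human serum albumin. Filter-bound radioactivity counted; specific binding = total minus binding without PGD2; IC50 from titration curves.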
Background: GTPγS resists hydrolysis and so accumulates on activated G proteins.

In another test the target is T3, human DP1 receptor (Homo sapiens, UniProt Q13258).
T3 construct: tissue Biological Specialty Corporation; host or cells: human platelets, membranes
T3 sequence (Q13258 1-359): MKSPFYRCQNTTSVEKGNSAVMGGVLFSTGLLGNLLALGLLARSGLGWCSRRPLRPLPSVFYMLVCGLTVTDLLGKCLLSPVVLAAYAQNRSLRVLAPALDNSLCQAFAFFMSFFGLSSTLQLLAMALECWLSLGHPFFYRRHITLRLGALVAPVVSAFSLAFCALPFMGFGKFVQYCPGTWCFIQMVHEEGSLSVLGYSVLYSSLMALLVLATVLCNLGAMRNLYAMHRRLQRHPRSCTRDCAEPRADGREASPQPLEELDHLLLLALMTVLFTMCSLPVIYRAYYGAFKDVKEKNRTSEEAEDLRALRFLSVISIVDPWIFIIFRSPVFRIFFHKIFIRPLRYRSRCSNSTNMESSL
The test can be described thus: DP1 radioligand binding assay using [3H]BWA868C. The settings on record: hDP1 binding. In outline: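 Human platelet membranes (20 μg protein/well) incubated 60 min at room temperature with 2 nM [3H]BWA868C in 50 mM Hepes, 10 mM MnCl2, 1 mM EDTA, ±0.2% human serum albumin, pH 7.4. Bound label measured after filtration; nonspecific binding defined with 10 μM BW A868C. IC50 from titration curves.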

For the molecule `C[C@@H]1[C@H](c2ccccc2)OC(=O)N1Cc1cc(Br)ccc1Oc1cc(Cl)cc(CC(=O)O)c1` [Compound 1-56, {3-[4-Bromo-2-((4R,5S)-4-methyl-2-oxo-5-phenyl-oxazolidin-3-ylmethyl)-phenoxy]-5-chloro-phenyl}-acetic acid], the figures for the pIC50 at human DP2 receptor and on human DP1 receptor were above 6.52 and below 6.00, respectively. Besides, the IC50 in test [1] is below 0.3 µM.
Taken in the same sequence, the figures for `C[C@@H]1[C@H](c2ccccc2)OC(=O)N1Cc1cc(Br)ccc1Oc1cc(CC(=O)O)cc(C(F)(F)F)c1` [Compound 1-57, {3-[4-Bromo-2-((4R,5S)-4-methyl-2-oxo-5-phenyl-oxazolidin-3-ylmethyl)-phenoxy]-5-trifluoromethyl-phenyl}-acetic acid] were above 6.52, below 6.00 and below 0.3 µM.
Taken in the same sequence, the figures for `C[C@@H]1[C@H](c2ccccc2)OC(=O)N1Cc1cc(Br)ccc1Oc1cc(CC(=O)O)ccc1Cl` [Compound 1-58, {3-[4-Bromo-2-((4R,5S)-4-methyl-2-oxo-5-phenyl-oxazolidin-3-ylmethyl)-phenoxy]-4-chloro-phenyl}-acetic acid] were above 6.52, below 6.00 and 0.3 to 1 µM.
With `COc1ccc(CC(=O)O)cc1Oc1ccc(Cl)cc1CN1C(=O)O[C@@H](c2ccccc2)[C@H]1C` [Compound 1-59, {3-[4-Chloro-2-((4R,5S)-4-methyl-2-oxo-5-phenyl-oxazolidin-3-ylmethyl)-phenoxy]-4-methoxy-phenyl}-acetic acid], the pIC50 (usually the IC50 on a negative log10 scale, so that one unit is a factor of ten) at human DP2 receptor is above 6.52; at human DP1 receptor it was below 6.00. The IC50 in test [1] was below 0.3 µM.
The corresponding values for `COc1ccc(CC(=O)O)cc1Oc1ccc(Br)cc1CN1C(=O)O[C@@H](c2ccccc2)[C@H]1C` [Compound 1-60, {3-[4-Bromo-2-((4R,5S)-4-methyl-2-oxo-5-phenyl-oxazolidin-3-ylmethyl)-phenoxy]-4-methoxy-phenyl}-acetic acid] are above 6.52, below 6.00 and below 0.3 µM.
In the case of `COc1ccc(CC(=O)O)cc1Oc1ccc(C(F)(F)F)cc1CN1C(=O)O[C@@H](c2ccccc2)[C@H]1C` [Compound 1-61, {4-Methoxy-3-[2-((4R,5S)-4-methyl-2-oxo-5-phenyl-oxazolidin-3-ylmethyl)-4-trifluoromethyl-phenoxy]-phenyl}-acetic acid], the values for the pIC50 at human DP2 receptor and at human DP1 receptor were above 6.52 and below 6.00, respectively. The IC50 in test [1] was in the range of 0.3 to 1 µM.
Taken in the same sequence, the figures for `COc1ccc(CC(=O)O)cc1Oc1ccc(Br)cc1CN1C(=O)O[C@@H](c2ccc(Cl)cc2)[C@H]1C` [Compound 1-62] were above 6.52, below 6.00 and 0.3 to 1 µM.
Taken in the same sequence, the figures for `COc1ccc(CC(=O)O)cc1Oc1ccc(Br)cc1CN1C(=O)O[C@@H](c2cc(F)cc(F)c2)[C@H]1C` [Compound 1-63, (3-{4-Bromo-2-[(4R,5S)-5-(3,5-difluoro-phenyl)-4-methyl-2-oxo-oxazolidin-3-ylmethyl]-phenoxy}-4-methoxy-phenyl)-acetic acid] were above 6.52, below 6.00 and below 0.3 µM.
Taken in the same sequence, the figures for `COc1ccc(CC(=O)O)cc1Oc1ccc(Br)cc1CN1C(=O)O[C@@H](c2cc(C(F)(F)F)cc(C(F)(F)F)c2)[C@H]1C` [Compound 1-64, (3-{2-[(4R,5S)-5-(3,5-Bis-trifluoromethyl-phenyl)-4-methyl-2-oxo-oxazolidin-3-ylmethyl]-4-bromo-phenoxy}-4-methoxy-phenyl)-acetic acid] were 6.00 to 6.52, below 6.00 and above 1 µM.
Regarding `CCNC(=O)c1ccc(Oc2cc(CC(=O)O)ccc2OC)c(CN2C(=O)O[C@@H](c3ccccc3)[C@H]2C)c1` [Compound 1-65, {3-[4-Ethylcarbamoyl-2-((4R,5S)-4-methyl-2-oxo-5-phenyl-oxazolidin-3-ylmethyl)-phenoxy]-4-methoxy-phenyl}-acetic acid], the pIC50 on human DP2 receptor is above 6.52; at human DP1 receptor it was below 6.00. Also, the IC50 in test [1] lay in the range of 0.3 to 1 µM.
Consider `COc1ccc(CC(=O)O)cc1Oc1ccc(-c2cnn(C)c2)cc1CN1C(=O)O[C@@H](c2ccccc2)[C@H]1C` [Compound 1-66, {4-Methoxy-3-[2-((4R,5S)-4-methyl-2-oxo-5-phenyl-oxazolidin-3-ylmethyl)-4-(1-methyl-1H-pyrazol-4-yl)-phenoxy]-phenyl}-acetic acid], for which the results for the pIC50 on human DP2 receptor and at human DP1 receptor were above 6.52 and below 6.00, respectively. In addition, the IC50 in test [1] is below 0.3 µM.
The corresponding values for `C[C@@H]1[C@H](c2ccccc2)OC(=O)N1Cc1cc(C(F)(F)F)ccc1Oc1cc(CC(=O)O)ccc1OCc1ccccc1` [Compound 1-67, {4-Benzyloxy-3-[2-((4R,5S)-4-methyl-2-oxo-5-phenyl-oxazolidin-3-ylmethyl)-4-trifluoromethyl-phenoxy]-phenyl}-acetic acid] are above 6.52, below 6.00 and 0.3 to 1 µM.
The corresponding values for `Cc1nc(C)c(-c2ccc(Oc3cccc(CC(=O)O)c3)c(CN3C(=O)O[C@H](c4ccccc4)[C@@H]3C)c2)s1` [Compound 1-75, {3-[4-(2,4-Dimethyl-thiazol-5-yl)-2-((4S,5R)-4-methyl-2-oxo-5-phenyl-oxazolidin-3-ylmethyl)-phenoxy]-phenyl}-acetic acid] are above 6.52, above 6.52 and 0.3 to 1 µM.
Regarding `Cc1noc(C)c1-c1ccc(Oc2cccc(CC(=O)O)c2)c(CN2C(=O)O[C@H](c3ccccc3)[C@@H]2C)c1` [Compound 1-76, {3-[4-(3,5-Dimethyl-isoxazol-4-yl)-2-((4S,5R)-4-methyl-2-oxo-5-phenyl-oxazolidin-3-ylmethyl)-phenoxy]-phenyl}-acetic acid], the pIC50 on human DP2 receptor and on human DP1 receptor was above 6.52 in each case. The IC50 in test [1] lay within 0.3 to 1 µM.
On to `C[C@H]1[C@@H](c2ccccc2)OC(=O)N1Cc1cc(C(F)(F)F)ccc1Oc1cccc(CC(=O)O)c1` [Compound 1-77, {3-[2-((4S,5R)-4-Methyl-2-oxo-5-phenyl-oxazolidin-3-ylmethyl)-4-trifluoromethyl-phenoxy]-phenyl}-acetic acid], for which the pIC50 on human DP2 receptor and on human DP1 receptor was above 6.52 in each case. The IC50 in test [1] lay within 0.3 to 1 µM.
As for `C[C@@H]1[C@H](c2ccccc2)OC(=O)N1Cc1cc(C(F)(F)F)ccc1Oc1cc(CC(=O)O)ccc1O` [Compound 1-78, {4-Hydroxy-3-[2-((4R,5S)-4-methyl-2-oxo-5-phenyl-oxazolidin-3-ylmethyl)-4-trifluoromethyl-phenoxy]-phenyl}-acetic acid], the pIC50 on human DP2 receptor is above 6.52; on human DP1 receptor, below 6.00. The IC50 in test [1] is below 0.3 µM.
The corresponding values for `C[C@@H]1[C@H](c2ccccc2)OC(=O)N1Cc1cc(C(F)(F)F)ccc1Oc1cc(CC(=O)O)ccc1-c1cnn(C)c1` [Compound 1-79, [3-[2-((4R,5S)-4-Methyl-2-oxo-5-phenyl-oxazolidin-3-ylmethyl)-4-trifluoromethyl-phenoxy]-4-(1-methyl-1H-pyrazol-4-yl)-phenyl]-acetic acid] are above 6.52, below 6.00 and below 0.3 µM.
On to `C[C@@H]1[C@H](c2ccccc2)OC(=O)N1Cc1cc(C(F)(F)F)ccc1Oc1cc(CC(=O)O)ccc1-c1ccccc1` [Compound 1-80, {2-[2-((4R,5S)-4-Methyl-2-oxo-5-phenyl-oxazolidin-3-ylmethyl)-4-trifluoromethyl-phenoxy]-biphenyl-4-yl}-acetic acid], for which the pIC50 at human DP2 receptor was above 6.52; on human DP1 receptor, below 6.00. Also, the IC50 in test [1] is below 0.3 µM.
The corresponding values for `COc1ccc(CC(=O)O)cc1Oc1cc(Br)ccc1CN1C(=O)O[C@H](c2ccccc2)[C@@H]1C` [Compound 1-81, {3-[5-Bromo-2-((4S,5R)-4-methyl-2-oxo-5-phenyl-oxazolidin-3-ylmethyl)-phenoxy]-4-methoxy-phenyl}-acetic acid] are above 6.52, below 6.00 and below 0.3 µM.
